Assay results: patent publication US20040259772A1, “Use of a histone deacetylase inhibitor to increase the entry of an adenoviral agent into a cell” (priority 2001, published 2004)

Tests used:
[1] = system: coxsackie-adenovirus receptor (CAR); assay: RT-PCR analysis of CAR RNA levels in cultured cells; assay type: cell-based, human; details: for level of CAR (RT-PCR): HUVEC; for level of CAR (RT-PCR), compared with K562: less than 3 ng/ml
Procedure: RT-PCR for CAR and integrin αv was performed using total RNA extracted with the RNeasy Mini Kit (Qiagen, Valencia, Calif.). Single-stranded oligo(dt)-primed cDNA was generated from 1 μg of RNA in a 20 μl reaction using MMLV reverse transcriptase (Life Technologies, Eggenstein, Germany). Oligonucleotide primers used for analysis of human CAR (Bergelson et al., supra) and αv integrin (Suzuki et al., Proc. Natl. Acad. Sci. U.S.A. 83:8614-8618 (1986)) RNA expression were:
(§1) These primers generated products that were 631 bp (CAR) and 490 bp (αv integrin) in length. The amplification reaction was carried out with 1 μg of the cDNA product for 30 cycles, and each cycle consisted of 94° C for 20 sec, 64° C. for 30 sec and 72° C. for 1 min, followed by a final 10 min elongation at 72° C. Comparability of RNA quantities was assured using β-actin as an internal standard. Oligonulceotide primers for human β-actin RNA amplification were: […]

[2] = system: human umbilical vein endothelial cells (HUVEC); assay: Adenoviral β-galactosidase transgene expression in HUVEC; assay type: cell-based; details: HUVEC treated with 0.3 ng/ml for 48 hr prior to adenoviral infection
Excerpt: […] Cells were transduced with 100 MOI of Ad-βgal in medium without serum for 1 hr and maintained with serum-containing medium for 48 hrs after transduction. Adenovirus transgene expression was compared using the β-Gal Staining Kit (Invitrogen, Carlsbad, Calif.) and β-gal positive cells were counted from three non-overlapping fields.

αv integrin = assay: RT-PCR analysis of αv integrin RNA levels in cultured cells; assay type: cell-based, human
Procedure: RT-PCR for CAR and integrin αv was performed using total RNA extracted with the RNeasy Mini Kit (Qiagen, Valencia, Calif.). Single-stranded oligo(dt)-primed cDNA was generated from 1 μg of RNA in a 20 μl reaction using MMLV reverse transcriptase (Life Technologies, Eggenstein, Germany).
as §1, with “The” for “These primers generated products that were 631 bp (CAR) and 490 bp (αv integrin) in length. The”

[3] = system: CD34+ selected peripheral blood stem cells (PBSCs); assay: Adenoviral β-galactosidase transgene expression in CD34+ PBSCs; assay type: cell-based; details: pre-treated 0.1 ng/ml for 24 hr, moi=10, incubation less than 1 hr
Excerpt: (§2) […] […] Adenovirus transgene expression was compared using the β-Gal Staining Kit (Invitrogen, Carlsbad, Calif.) and β-gal positive cells were counted from three non-overlapping fields.

CAR = CAR expression in PBMNCs of a Phase I depsipeptide patient; assay type: in vivo, human
Excerpt: (§3) In addition to the above, PBMNCs were obtained from a patient enrolled in a Phase I depsipeptide (FR901228) study (concentrations used with cultured cells are within the range administered to patients) and examined.

acetylated histone H3 [4] = assay: Acetylated histone H3 in PBMNCs of a Phase I depsipeptide patient; assay type: in vivo, human; details: after administration of depsipeptide
Excerpt: as §3

[5] = system: G-CSF-mobilized peripheral blood mononuclear cells (PBMNCs); assay: Adenoviral β-galactosidase transgene expression in PBMNCs; assay type: cell-based; details: pre-treated 0.1 ng/ml for 24 hr, moi=10, incubation less than 1 hr
Excerpt: as §2

acetylated histone H3 [6] = assay: Western blot analysis of acetylated histone H3; assay type: cell-based, human
Procedure: Supernatants were collected as nuclear extracts. […] The membrane was incubated for 30 min with either a rabbit polyclonal antibody against acetylated histone H3 (Upstate Biotechnology, Lake Placid, N.Y.) or a rabbit polyclonal antibody against histone H3 (Upstate Biotechnology, Lake Placid, N.Y.) diluted 1:2000 in 5% milk. After washing, anti-rabbit Ig horseradish peroxidase-linked secondary antibody (Amersham Pharmacia Biotech, Piscataway, N.J.) was added and incubated for 30 min. After washing, the membrane was developed in ECL™ Western blotting detection reagents (Amersham Pharmacia Biotech, Piscataway, N.J.).

[7] = system: A498, MCF7 and HepG2 cancerous cell lines; assay: β-galactosidase expression upon AdCMVβgal infection, cancerous cell lines (Example 4); assay type: cell-based, human
Procedure: (§4) 10^4 untreated cells or 10^4 cells pre-treated with 1 ng/ml depsipeptide for 72 hrs were plated on a round cover glass (DAIGGER, Vernon Hills, Ill.) in 24 well plates. Cells were transduced with 100 MOI of Ad-βgal in medium without serum for 1 hr and maintained with serum-containing medium for 48 hrs after transduction. Adenovirus transgene expression was compared using the β-Gal Staining Kit (Invitrogen, Carlsbad, Calif.) and β-gal positive cells were counted from three non-overlapping fields.
A498, MCF7 and HepG2 cancerous cell lines and normal cells (Clonetics, Walkersville, Md.) were treated with FR901228. […] Induction of CAR was only observed in normal cells at 10-20 ng/ml FR901228 and then only a two-fold increase in CAR was observed.

histone H3 = assay: Western blot analysis of total histone H3; assay type: cell-based, human
Procedure: Supernatants were collected as nuclear extracts. Ten […] of protein were separated on an 11% SDS-PAGE gel, and electroblotting to Immobilon™-P transfer membrane (Millipore, Bedford, Mass.) was performed. The membrane was incubated for 30 min with either a rabbit polyclonal antibody against acetylated histone H3 (Upstate Biotechnology, Lake Placid, N.Y.) or a rabbit polyclonal antibody against histone H3 (Upstate Biotechnology, Lake Placid, N.Y.) diluted 1:2000 in 5% milk. After washing, anti-rabbit Ig horseradish peroxidase-linked secondary antibody (Amersham Pharmacia Biotech, Piscataway, N.J.) was added and incubated for 30 min. After washing, the membrane was developed in ECL™ Western blotting detection reagents (Amersham Pharmacia Biotech, Piscataway, N.J.).

[8] = system: human cancer cell lines FTC 236, SW-1736, SW620, A498, MCF7, HepG2; assay: Transduction efficiency by Ad-βgal (β-gal positive cells), six cancer cell lines; assay type: cell-based; details: 72 hrs with 1 ng/ml depsipeptide
Procedure: A total of 6 human cancer cell lines were tested: a follicular thyroid carcinoma (FTC 236) (Demeure et al., World J. Surg. 16:770-776 (1992)); an anaplastic thyroid carcinoma (SW-1736) (Ain et al., J. Clin. Endocrinol. Metab. 81:3650-3653 (1996)); a colon carcinoma (SW620) (Leibovitz et al., Cancer Res. 36:4562-4569 (1976)); a renal cell carcinoma (A498) (Giard et al., J. Natl. Cancer Inst. 51:1417-1423 (1973)); a breast carcinoma (MCF7) (Soule et al., J. Natl. Cancer Inst. 51:1409-1413 (1973)); and a hepatocarcinoma (HepG2) (Knowles et al., Science 209:497-499 (1980)).
The Ad5.CMV-LacZ is an E1 and E3 gene deleted replication defective type 5 adenovirus obtained from Qbiogene (Carlsbad, Calif.). It was grown in 293A cells according to protocols supplied by the company. The AdCMVβgal virus was purified and the titer was determined by the TCID50 assay as described by the manufacturer.
as §4

K562 cells = assay: Adenoviral β-galactosidase transgene expression in K562; assay type: cell-based, human; details: pre-treated 1 ng/ml for 24 hr, moi=50, incubation less than 1 hr
Excerpt: as §2

[9] = 1 ng/ml depsipeptide for 72 hrs, all six human cancer cell lines
[10] = A498, MCF7, HepG2 cancerous cells, 1 ng/ml

**Q.** How did the “level of CAR (RT-PCR)” value ([1]; concentration not given) turn out when CCCC(=O)[O-].[Na+] [sodium butyrate] was run?
**A.** little effect

**Q.** With C/C=C1\NC(=O)[C@H]2CSSCC/C=C/[C@H](CC(=O)N[C@H](C(C)C)C(=O)N2)OC(=O)[C@H](C(C)C)NC1=O [FR901228] as the molecule, how does the “cells expressing the β-galactosidase transgene” value [2] read?
**A.** over 80%

**Q.** What about the “expression of endogenous αv integrin” value (αv integrin; [9]) of the same molecule?
**A.** increased expression

**Q.** And the “levels of αv integrins” value (αv integrin; [10])?
**A.** increased from undetectable to a level similar to that found in untreated normal cells

**Q.** And the “levels of αv integrins (printed 'o integrins')” value (αv integrin; normal cells treated in the same manner)?
**A.** little increase

**Q.** And the “cells expressing β-galactosidase” value [3]?
**A.** more than 80%

**Q.** And the “CAR expression in patient PBMNCs” value (CAR; after completion of a 4 hr depsipeptide infusion)?
**A.** increase

**Q.** What about the “CAR expression in patient PBMNCs” value (CAR; at 24 hr of depsipeptide infusion) of the same molecule?
**A.** further increase

**Q.** What about the “level of acetylated histone H3 in patient PBMNCs” value (acetylated histone H3 [4]) of the same molecule?
**A.** increased

**Q.** And the “cells expressing β-galactosidase” value [5]?
**A.** more than 80%

**Q.** And the “expression of endogenous CAR” value [1, 9]?
**A.** increased expression

**Q.** What about the CAR expression [1, 10] of the same molecule?
**A.** increased CAR expression in cancerous cells to levels higher than those found in normal cells

**Q.** What about the “level of CAR (RT-PCR), compared with K562” value ([1]; CD34+ selected PBSCs) of the same molecule?
**A.** Comparable levels of CAR

**Q.** And the “level of CAR (RT-PCR), compared with K562” value ([1]; G-CSF-mobilized PBMNCs)?
**A.** Comparable levels of CAR

**Q.** What about the “level of CAR (RT-PCR)” value ([1]; 0.3 ng/ml for 48 hr) of the same molecule?
**A.** increased the level of CAR significantly

**Q.** What about the “increase in level of CAR (RT-PCR)” value ([1]; K562 cells, 1 ng/ml) of the same molecule?
**A.** about 3 fold

**Q.** And the “concentration at which induction of CAR was observed” value ([1]; normal cells (Clonetics))?
**A.** 10 to 20 ng/mL

**Q.** And the “increase in CAR” value ([1]; normal cells, 10-20 ng/ml)?
**A.** two-fold

**Q.** And the histone acetylation (acetylated histone H3 [6]; 1 ng/ml depsipeptide, cancer cell lines of Example 1)?
**A.** marked increase

**Q.** And the “level of acetylated histone H3” value (acetylated histone H3 [6]; CD34+ PBSCs)?
**A.** increased the level of acetylated histone H3 substantially

**Q.** And the “level of acetylated histone H3” value (acetylated histone H3 [6]; HUVEC)?
**A.** increased the level of acetylated histone H3 substantially

**Q.** And the “level of acetylated histone H3” value (acetylated histone H3 [6]; K562 cells)?
**A.** increased the level of acetylated histone H3 substantially

**Q.** What about the histone acetylation (acetylated histone H3 [6]; cancerous cells, 1 ng/ml) of the same molecule?
**A.** increased histone acetylation

**Q.** What about the “concentration required to increase histone acetylation” value (acetylated histone H3 [6]; normal cells, compared with cancerous cells) of the same molecule?
**A.** higher concentration

**Q.** What about the “cancerous cells expressing β-galactosidase” value ([7]; A498, MCF7, HepG2 following FR901228 treatment) of the same molecule?
**A.** 75-85%

**Q.** What about the “increase in β-galactosidase expression upon infection” value ([7]; all cancerous cell lines (A498, MCF7, HepG2) following FR901228 treatment) of the same molecule?
**A.** 4-10 fold

**Q.** What about the “level of histone H3” value (histone H3; HUVEC) of the same molecule?
**A.** not altering the level of histone H3

**Q.** And the “total histone H3 levels” value (histone H3; K562 cells and CD34+ PBSCs)?
**A.** No significant change

**Q.** What about the “cells expressing β-galactosidase” value ([8]; then adenovirus with CMV-β-galactosidase, six cancer cell lines) of the same molecule?
**A.** 72-88%

**Q.** And the “frequency of expression of the β-galactosidase transgene” value ([8]; all cell lines)?
**A.** marked increases

**Q.** What about the “cells expressing β-galactosidase” value (K562 cells) of the same molecule?
**A.** more than 80%

**Q.** For CC(/C=C/C(=O)NO)=C\[C@@H](C)C(=O)c1ccc(N(C)C)cc1 [trichostatin A], which “level of CAR (RT-PCR)” value ([1]; concentration not given) is on record?
**A.** increased the level of CAR slightly
